Assay results from US20050065218A1, “Utilization of alverine, alone or in combination with tricyclic antidepressant or a specific serotonin reuptake inhibitor for the treatment of depression” (priority 2003, published 2005).
Several values for one entry are separate records, joined by “and”; a condition that tells them apart may be missing. Equal entries are not always repeated. Structures can show the parent of a compound that is named as a salt.

Assays:
Swiss mice CD1 [1] = test: forced swim test, Alverine and imipramine administered intraperitoneally to mice (Example 3, first test); type: in vivo; design: key to Dunnett test vs control group: * indicates a significant difference for p < 0.05 (Dunnett test); ns indicates an insignificant result; details: for immobility time, individual animals / immobility time, Mean: 30 minutes prior to the test; for immobility time, Mean: n = 10
Protocol: These are Swiss mice CD1 (CD-1® (ICR) IGS (Charles River France) weighing between 25 and 35 g. […] They are placed 15 to 20 per cage, over an acclimatising period of at least 5 days prior to the tests. They are identified by marking on the fur. […] The mice were divided into two test comprising six groups of 10 mice each. For the first test: The first group is the control group: it is treated only by excipient. The second group is treated with imipramine at a dose of 3 mg/kg The third group is treated with Alverine at a dose of 3 mg/kg The fourth group is treated with Alverine at a dose of 3 mg/kg and imipramine at a dose of 3 mg/kg The fifth group is treated with imipramine at a dose of 10 mg/kg […] The doses are expressed in terms of free active substances. The test substances are prepared extemporaneously in a saline solution. The treatments are co-administered 30 minutes prior to the test in a coded and random order intraperitoneally with a volume of 10 ml/kg (5 ml/kg for each administration). Thirty minutes following administration the six groups of mice are subjected to the forced swim test, in a vertical Plexiglas cylinder (height 24 cm, diameter 9 cm) containing water (height 6 cm, temperature 18-22° C.). The total duration of immobility is measured over the last four minutes of the test, six minutes in total. A mouse is deemed immobile when it ceases struggling and floats in the water without movements superfluous to those allowing it to keep its head above water. A drop in immobility time is the reflection of an antidepressant effect. The forced swim test is a pre-clinical behavioural model, which has good predictive validity and is widely employed for determining the efficacy of antidepressant medications (Borsini and Meli, 1988). The results are expressed in total duration of immobility in seconds and as a percentage of variation of the total duration of immobility calculated from the average value of the control group. The statistical significance between two treated groups is determined by using a Student test (P<0.05) The data are analysed using <<SigmaStat>> software.

Swiss mice CD1 [2] = test: observation of secondary effects in mice treated orally (Example 2); type: in vivo; details: treated orally, 10, 30, 100 mg/kg
[3] = Alverine 3 mg/kg intraperitoneally
[4] = Alverine 10 mg/kg intraperitoneally

**Q.** Which results are given for CCN(CCCc1ccccc1)CCCc1ccccc1 [Alverine citrate, N-ethyl-3,3′-diphenyldipropylamine]?
**A.** % of variation of immobility time vs control group (Swiss mice CD1 [1]; [3]): −30%; Dunnett test vs control group (Swiss mice CD1 [1]; [3]): ns; immobility time, individual animals (Swiss mice CD1 [1]; [3]): 108 s and 134 s and 113 s and 65 s and 85 s and 73 s and 79 s and 125 s and 95 s and 140 s; immobility time, Mean (Swiss mice CD1 [1]; [3]): 101.7 s; % of variation of immobility time vs control group (Swiss mice CD1 [1]; [4]): −70%; Dunnett test vs control group (Swiss mice CD1 [1]; [4]): * (* indicates a significant difference for p < 0.05 (Dunnett test)); immobility time, individual animals (Swiss mice CD1 [1]; [4]): 28 s and 10 s and 1 s and 74 s and 22 s and 70 s and 69 s and 67 s and 42 s and 57 s; immobility time, Mean (Swiss mice CD1 [1]; [4]): 44.0 s; decrease in the duration of immobilisation as compared to the control group (in words) (Swiss mice CD1 [1]; tested alone at 3 mg/kg intraperitoneally): statistically insignificant decrease; secondary effect (Swiss mice CD1 [2]): no secondary effect was observed
